Measured values published in publication PMC6272448, “Synthesis, ^18F-Radiolabelling and Biological Characterization of Novel Fluoroalkylated Triazine Derivatives for in Vivo Imaging of Phosphodiesterase 2A in Brain via Positron Emission Tomography” (Molecules, 2015).

Legend:
[1] = lipophilicity (logD7.4), shake-flask method; format: physicochemical; conditions: n-octanol/PBS (1:1, v/v), n-octanol / PBS pH 7.4, ambient temperature, fourfold determination
Experimental: To estimate the lipophilicity of [^18F]TA3 and [^18F]TA4, the distribution coefficients were determined by partitioning between n-octanol and phosphate buffered saline (PBS, pH 7.4) at ambient temperature using the conventional shake-flask method. […] In vitro stability of each radioligand was investigated in phosphate buffered saline (PBS, pH 7.4), n-octanol and pig plasma after 60 min incubation at 37 °C.
The lipophilicity of [^18F]TA3 or [^18F]TA4 was determined by partitioning between n-octanol and phosphate buffered saline (PBS, pH 7.4) at ambient temperature using the conventional shake-flask method. An aliquot of 10 µL of the formulated solutions of each [^18F]TA3 or [^18F]TA4 with approximately 1 MBq of the radioligand was added to a tube containing 6 mL of the n-octanol/PBS-mixture (1:1, v/v, fourfold determination). The tubes were shaken for 20 min using a mechanical shaker (HS250 basic, IKA Labortechnik GmbH & Co. KG, Staufen, Germany) followed by centrifugation (5000 rpm for 5 min) and separation of the phases. Aliquots of each 1 mL were taken from the organic and the aqueous phase and activity was measured using an automated gamma counter (1480 WIZARD, Fa. Perkin Elmer, Waltham, MA, USA). The distribution coefficient (D) was calculated as [activity (cpm/mL) in n-octanol]/[activity (cpm/mL) in PBS, pH 7.4] specified as the decade logarithm (logD7.4).

[2] = in vivo metabolism in mice, conventional extraction and RP-HPLC; conditions: CD-1 mice, 30 min p.i., 150 MBq, extraction + RP-HPLC
Experimental: In vivo metabolism of [^18F]TA3 and [^18F]TA4 was investigated in plasma and brain samples obtained from CD-1 mice at 30 min post injection of 150 MBq of each radioligand. Analysis of the samples was performed after protein precipitation and twofold extraction using an organic solvent. […] In brain samples, 50% of total activity were represented by intact [^18F]TA3 (Figure 7; recovery: 65%).
The radioligands [^18F]TA3 or [^18F]TA4 (~60 MBq in 150 µL isotonic saline) were injected via the tail vein in female CD-1 mice (10–12 weeks old). Brain and blood samples were obtained at 30 min p.i., plasma separated by centrifugation (14,000× g, 1 min), and brain homogenized in ~1 mL isotonic saline on ice (10 strokes of a PTFE plunge at 1000 rpm in a borosilicate glass cylinder; Potter S Homogenizer, B. Braun Melsungen AG, Melsungen, Germany).
Twofold extractions of plasma (2 × 50 µL, 30 min p.i.) and brain samples (2 × 250 µL, 30 min p.i.) were performed using a mixture of ice-cold acetone/water (8:2, v/v; plasma or brain sample/organic solvent, 1:4, v/v). The samples were vortexed for 1 min, incubated on ice for 10 min (first extraction) or 5 min (second extraction) and centrifuged at 10,000 rpm for 5 min. Supernatants were collected and the precipitates were re-dissolved in ice-cold acetone/water for the second extraction. Aliquots from supernatants of each extraction step were taken. Activity thereof and of the precipitates was quantified using an automated gamma counter (1480 WIZARD, Fa. Perkin Elmer). The supernatants from both extractions were combined, concentrated under nitrogen stream at 70 °C and analyzed by radio-HPLC (system B).

Row | SMILES | logD [1] | intact radioligand in brain [2] | non-metabolized (intact) radioligand in plasma [2]
1 | COc1ccc2nnc3c(C)nc(-c4cc(OCCC[18F])ccc4F)n3c2n1 [[^18F]TA3] | 3.37 ± 0.14 | 50 % of total activity | 8 % of total activity
2 | COc1ccc2nnc3c(C)nc(-c4cc(OCCCC[18F])ccc4F)n3c2n1 [[^18F]TA4] | 2.99 ± 0.15 | No intact [^18F]TA4 was detectable | 6 % of total activity
